Patent US20170233414A1, “DERIVATIVES OF BODIPY” (OREGON HEALTH & SCIENCE UNIVERSITY, priority 2016, published 2017)

Assay: Fluorescence properties and quantum yield measurements of the BAA library
Type: physicochemical
Parameters: FWHM (full-width-at half max): unit not given here
Conditions: anhydrous DMSO; for λmax ABS / λmax EM: polystyrene 96 well plate; for FWHM (full-width-at half max): emission; for φfl (quantum yield): relative to reference fluorophore at three concentrations
Description: General Instruments. Synthesized sample purification was performed with an Agilent 1260 Infinity HPLC utilizing a C18 column (150mm×21.2 mm). MS (HRMS, ESI) spectra data was collected with an Agilent 6244 TOF LC/MS with diode array detector VL+ and C18 column (4.6 mm×50 mm). Absorbance and fluorescence data were measured on a SpectraMax M5 Microplate reader. NMR spectra, ^1H and ^13C, were recorded on a Bruker ARK400 spectrometer. BAA microscopy screening in cells for organelle specificity and signal-to-background ratio was completed with an Axio Zeiss Light Microscope and 63× oil immersion objective.
Fluorescence Properties and Quantum Yield Measurements. Spectroscopic characterizations were performed in anhydrous DMSO in polystyrene 96 well plate. Analysis included the maximum absorbance wavelength, maximum fluorescence emission wavelength, full-width-at half max, and quantum yield. Quantum yields (φfl) were determined by comparing the area under the emission spectrum of the BAA compound to a reference fluorophore solution at three concentrations using equation 1, where Grad represents the gradient from the plots of integrated fluorescence intensity vs absorbance at three concentrations and q is the refractive index of the solvent. Fluorescein in 0.1 M NaOH (φfl=0.91)^3 was the reference for samples with a max absorbance up to 510 nm, where an excitation of 470 nm was used with the emission integrated between 490 to 800 nm. Rhodamine B in ethanol (φfl=0.70) was the reference for samples with a max absorbance between 511-595 nm, where an excitation of 525 nm was used with the emission integrated between 545 to 800 nm. Cresyl violet in methanol (φfl=0.54)^4 was the reference for samples with a max absorbance above 595 nm, where an excitation of 570 nm was used with the emission integrated between 590 to 800 nm.

SMILES: CCOc1ccc2[nH]c(=O)cc(C=CC3=[N+]4C(=Cc5ccc(CCC(=O)O)n5[B-]4(F)F)C(C)=C3)c2c1 [BAA-51a]
- Stokes Shift: 13 nm
- λmax ABS: 594 nm
- λmax EM: 607 nm
- FWHM (full-width-at half max): 42
- φfl (quantum yield): 0.06

SMILES: C#CCOc1c(Cl)cc(C=CC2=[N+]3C(=Cc4ccc(CCC(=O)O)n4[B-]3(F)F)C(C)=C2)cc1OC [BAA-52a]
- Stokes Shift: 8 nm
- λmax ABS: 577 nm
- λmax EM: 585 nm
- FWHM (full-width-at half max): 51
- φfl (quantum yield): 0.04

SMILES: COc1cc(C=CC2=[N+]3C(=Cc4ccc(CCC(=O)O)n4[B-]3(F)F)C(C)=C2)cc(OC)c1 [BAA-53a]
- Stokes Shift: 11 nm
- λmax ABS: 570 nm
- λmax EM: 581 nm
- FWHM (full-width-at half max): 30
- φfl (quantum yield): 0.44

SMILES: CC1=CC(/C=C/c2ccc(Cl)c(F)c2)=[N+]2C1=Cc1ccc(CCC(=O)O)n1[B-]2(F)F [BAA-54a]
- Stokes Shift: 8 nm
- λmax ABS: 573 nm
- λmax EM: 581 nm
- FWHM (full-width-at half max): 46
- φfl (quantum yield): 0.04

SMILES: CC1=CC(C=Cc2cnn(-c3ccccc3)c2C)=[N+]2C1=Cc1ccc(CCC(=O)O)n1[B-]2(F)F [BAA-55a]
- Stokes Shift: 16 nm
- λmax ABS: 576 nm
- λmax EM: 592 nm
- FWHM (full-width-at half max): 35
- φfl (quantum yield): 0.75

SMILES: CC1=CC(C=Cc2cnn(-c3ccccc3)c2C)=[N+]2C1=Cc1ccc(C(=Cc3cnn(-c4ccccc4)c3C)CC(=O)O)n1[B-]2(F)F [BAA-55b]
- Stokes Shift: 16 nm
- λmax ABS: 575 nm
- λmax EM: 591 nm
- FWHM (full-width-at half max): 38
- φfl (quantum yield): 0.75

SMILES: CC1=CC(C=Cc2ccc(-c3cccs3)nc2)=[N+]2C1=Cc1ccc(CCC(=O)O)n1[B-]2(F)F [BAA-56a]
- Stokes Shift: 10 nm
- λmax ABS: 585 nm
- λmax EM: 595 nm
- FWHM (full-width-at half max): 32
- φfl (quantum yield): 0.91

SMILES: CC1=CC(C=Cc2ccc(-c3cccs3)nc2)=[N+]2C1=Cc1ccc(C(=Cc3ccc(-c4cccs4)nc3)CC(=O)O)n1[B-]2(F)F [BAA-56b]
- Stokes Shift: 11 nm
- λmax ABS: 586 nm
- λmax EM: 597 nm
- FWHM (full-width-at half max): 35
- φfl (quantum yield): 0.15

SMILES: CC1=CC(C=Cc2cnn(-c3ccccc3C)c2C)=[N+]2C1=Cc1ccc(CCC(=O)O)n1[B-]2(F)F [BAA-57a]
- Stokes Shift: 16 nm
- λmax ABS: 574 nm
- λmax EM: 590 nm
- FWHM (full-width-at half max): 45
- φfl (quantum yield): 0.75

SMILES: CC1=CC(C=Cc2cnn(-c3ccccc3C)c2C)=[N+]2C1=Cc1ccc(C(=Cc3cnn(-c4ccccc4C)c3C)CC(=O)O)n1[B-]2(F)F [BAA-57b]
- Stokes Shift: 16 nm
- λmax ABS: 575 nm
- λmax EM: 591 nm
- FWHM (full-width-at half max): 38
- φfl (quantum yield): 0.75

SMILES: COC(=O)c1ccc(-c2cccc(C=CC3=[N+]4C(=Cc5ccc(CCC(=O)O)n5[B-]4(F)F)C(C)=C3)c2)cc1 [BAA-58a]
- Stokes Shift: 10 nm
- λmax ABS: 572 nm
- λmax EM: 582 nm
- FWHM (full-width-at half max): 30
- φfl (quantum yield): 0.70

SMILES: CC1=CC(C=Cc2cccc(-c3ccc(S(C)(=O)=O)cc3)n2)=[N+]2C1=Cc1ccc(CCC(=O)O)n1[B-]2(F)F [BAA-59a]
- Stokes Shift: 10 nm
- λmax ABS: 571 nm
- λmax EM: 581 nm
- FWHM (full-width-at half max): 30
- φfl (quantum yield): 0.53

SMILES: CC1=CC(C=Cc2ccc(-c3cccs3)s2)=[N+]2C1=Cc1ccc(C(=Cc3ccc(-c4cccs4)s3)CC(=O)O)n1[B-]2(F)F [BAA-60b]
- Stokes Shift: 16 nm
- λmax ABS: 588 nm
- λmax EM: 604 nm
- FWHM (full-width-at half max): 37
- φfl (quantum yield): 0.47

SMILES: CC1=CC(C=Cc2cccc3cnccc23)=[N+]2C1=Cc1ccc(CCC(=O)O)n1[B-]2(F)F [BAA-62a]
- Stokes Shift: 15 nm
- λmax ABS: 579 nm
- λmax EM: 594 nm
- FWHM (full-width-at half max): 33
- φfl (quantum yield): 0.68

SMILES: CC1=CC(C=Cc2cc3ccc(C)cc3nc2Cl)=[N+]2C1=Cc1ccc(CCC(=O)O)n1[B-]2(F)F [BAA-63a]
- Stokes Shift: 15 nm
- λmax ABS: 592 nm
- λmax EM: 607 nm
- FWHM (full-width-at half max): 39
- φfl (quantum yield): 0.43

SMILES: CC1=CC(C=Cc2c[nH]nc2-c2ccc(Cl)cc2)=[N+]2C1=Cc1ccc(CCC(=O)O)n1[B-]2(F)F [BAA-64a]
- Stokes Shift: 17 nm
- λmax ABS: 576 nm
- λmax EM: 593 nm
- FWHM (full-width-at half max): 37
- φfl (quantum yield): 0.80

SMILES: CC1=CC(C=Cc2ccc(-c3ccccc3F)o2)=[N+]2C1=Cc1ccc(CCC(=O)O)n1[B-]2(F)F [BAA-65a]
- Stokes Shift: 16 nm
- λmax ABS: 606 nm
- λmax EM: 622 nm
- FWHM (full-width-at half max): 54
- φfl (quantum yield): 0.21

SMILES: CC1=CC(C=Cc2ccc(-c3ccc(Cl)s3)nc2)=[N+]2C1=Cc1ccc(CCC(=O)O)n1[B-]2(F)F [BAA-66a]
- Stokes Shift: 11 nm
- λmax ABS: 587 nm
- λmax EM: 598 nm
- FWHM (full-width-at half max): 34
- φfl (quantum yield): 0.28

SMILES: CCSc1ccc(-c2ccc(C=CC3=[N+]4C(=Cc5ccc(CCC(=O)O)n5[B-]4(F)F)C(C)=C3)cn2)cc1 [BAA-67a]
- Stokes Shift: 11 nm
- λmax ABS: 587 nm
- λmax EM: 598 nm
- FWHM (full-width-at half max): 61
- φfl (quantum yield): 0.15

SMILES: CC1=CC(C=Cc2ccc(-c3nccs3)cc2)=[N+]2C1=Cc1ccc(CCC(=O)O)n1[B-]2(F)F [BAA-68a]
- Stokes Shift: 10 nm
- λmax ABS: 585 nm
- λmax EM: 595 nm
- FWHM (full-width-at half max): 30
- φfl (quantum yield): 0.17

SMILES: CC1=CC(C=Cc2ccc(-c3cc(Cl)cc(Cl)c3)nc2)=[N+]2C1=Cc1ccc(CCC(=O)O)n1[B-]2(F)F [BAA-69a]
- Stokes Shift: 12 nm
- λmax ABS: 577 nm
- λmax EM: 589 nm
- FWHM (full-width-at half max): 30
- φfl (quantum yield): 0.85

SMILES: CC1=CC(C=Cc2ccc(-c3cccc(C(F)(F)F)c3)nc2)=[N+]2C1=Cc1ccc(CCC(=O)O)n1[B-]2(F)F [BAA-70a]
- Stokes Shift: 8 nm
- λmax ABS: 580 nm
- λmax EM: 588 nm
- FWHM (full-width-at half max): 33
- φfl (quantum yield): 0.17

SMILES: CC1=CC(C=Cc2ccc(-c3ccc(OC(F)(F)F)cc3)nc2)=[N+]2C1=Cc1ccc(CCC(=O)O)n1[B-]2(F)F [BAA-71a]
- Stokes Shift: 9 nm
- λmax ABS: 580 nm
- λmax EM: 589 nm
- FWHM (full-width-at half max): 32
- φfl (quantum yield): 0.19

SMILES: CC1=CC(C=Cc2ccc(-c3ccc(F)c(F)c3)nc2)=[N+]2C1=Cc1ccc(CCC(=O)O)n1[B-]2(F)F [BAA-72a]
- Stokes Shift: 10 nm
- λmax ABS: 580 nm
- λmax EM: 590 nm
- FWHM (full-width-at half max): 31
- φfl (quantum yield): 0.40

SMILES: CC1=CC(C=Cc2ccc(OCCBr)cc2)=[N+]2C1=Cc1ccc(CCC(=O)O)n1[B-]2(F)F [BAA-73a]
- Stokes Shift: 14 nm
- λmax ABS: 579 nm
- λmax EM: 593 nm
- FWHM (full-width-at half max): 46
- φfl (quantum yield): 0.55
